In brackets after ≈: the same amount, converted by molar mass. Like-named read-outs stand apart in the source and are kept apart here.
Assays:
[1] = system: rodent macrophage (RAW) cell line; test: cells; settings: Mus musculus, Macrophage, read-out: Macrophage IC50
Description: (§1) General cytotoxicity was assessed by first determining LC50 's against a rodent macrophage (RAW) cell line using the 3-(4,5-dimethylthiazole-2-yl)-2,5-diphenyltetrazolium bromide (MTT) assay as described in one of our earlier studies. This screen was conducted to identify compounds that may require de-selection due to generalized toxicity. […] In vitro neurocytotoxicity was assessed by determining LC50s against primary mouse neurons using the MTT assay as described previously. Inhibition of the A2A and A1 receptors was determined at 200 nM in duplicate by Caliper Biosciences (Hanover, Maryland).

[2] = target: T1, CYP450 3A4 (Homo sapiens, UniProt P08684); test: CYP450 inhibition kit (drug-drug interaction), 3A4; type: biochemical
T1 construct: purchased BD Gentest (Franklin Lakes, NJ)
T1 sequence (P08684 whole entry): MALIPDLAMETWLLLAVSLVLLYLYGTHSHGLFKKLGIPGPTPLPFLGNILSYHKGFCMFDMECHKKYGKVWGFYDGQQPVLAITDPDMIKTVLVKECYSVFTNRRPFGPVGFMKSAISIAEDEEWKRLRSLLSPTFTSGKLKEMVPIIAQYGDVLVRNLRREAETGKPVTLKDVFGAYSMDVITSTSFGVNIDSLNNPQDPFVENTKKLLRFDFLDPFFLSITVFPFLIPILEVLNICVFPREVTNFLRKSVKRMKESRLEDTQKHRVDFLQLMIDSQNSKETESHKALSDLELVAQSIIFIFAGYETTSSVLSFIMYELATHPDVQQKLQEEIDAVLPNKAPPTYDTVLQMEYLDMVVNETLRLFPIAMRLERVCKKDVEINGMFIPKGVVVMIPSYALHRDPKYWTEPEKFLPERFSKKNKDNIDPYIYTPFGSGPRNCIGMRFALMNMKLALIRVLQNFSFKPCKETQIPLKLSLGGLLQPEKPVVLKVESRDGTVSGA
Description: (§2) Low IC50s against specific cytochrome P450 isoforms may indicate the potential for a harmful drug interaction to occur in vivo with substrates of that isoform. A lack of metabolic stability in vitro may indicate potential metabolic instability in vivo, and, therefore, a shorter half-life. Drug interaction potential was evaluated in vitro using BD Gentest (Franklin Lakes, NJ) CYP450 inhibition kits as recommended by the manufacturer. Metabolic stability assessments were conducted using in vitro liver microsomes. […] The reaction is started with the addition of 1 U/mL glucose-6-phosphate dehydrogenase G6PD. The mixture is incubated on a shaking platform at 37°C, and aliquots are taken and quenched with the addition of an equal volume of cold acetonitrile at 0, 10, 20, 30, and 60 min. Samples are centrifuged at 3700 rpm for […] at 20°C to remove debris. Sample quantification is carried out by LC/MS, and metabolic half-life is calculated by log plots of the total ion chromatograph area remaining.

[3] = metabolic stability in mouse liver microsomes; type: in vitro ADME; settings: pH 7.4; mouse liver microsomes, 1 μM; read-out: Half-life in mouse micro
Description: as §2, with “Interesting compounds were also submitted for drug-drug interaction and metabolic stability assays. Low” for “Low”

[4] = system: P. falciparum strain D6; test: labeled hypoxanthine susceptibility assay, P. falciparum D6; type: cell-based, Plasmodium falciparum; settings: Plasmodium falciparum
Description: (§3) The in vitro activities of quinoline methanols against P. falciparum strains W2, D6, TM91C235, and TM90C2A were evaluated using the traditional labeled hypoxanthine assay of Desjardins et al as modified by Milhous et al. These four P. falciparum strains were selected since they have various levels of resistance to conventional anti-malarials.

[5] = in vitro; settings: mouse
Description: as §1

[6] = system: P. falciparum strain TM90C2A; test: labeled hypoxanthine susceptibility assay, P. falciparum TM90C2A; type: cell-based, Plasmodium falciparum
Description: as §3

[7] = target: T2, CYP450 2D6 (Homo sapiens, UniProt P10635); test: CYP450 inhibition kit (drug-drug interaction), 2D6; type: biochemical
T2 construct: purchased BD Gentest (Franklin Lakes, NJ)
T2 sequence (P10635 whole entry): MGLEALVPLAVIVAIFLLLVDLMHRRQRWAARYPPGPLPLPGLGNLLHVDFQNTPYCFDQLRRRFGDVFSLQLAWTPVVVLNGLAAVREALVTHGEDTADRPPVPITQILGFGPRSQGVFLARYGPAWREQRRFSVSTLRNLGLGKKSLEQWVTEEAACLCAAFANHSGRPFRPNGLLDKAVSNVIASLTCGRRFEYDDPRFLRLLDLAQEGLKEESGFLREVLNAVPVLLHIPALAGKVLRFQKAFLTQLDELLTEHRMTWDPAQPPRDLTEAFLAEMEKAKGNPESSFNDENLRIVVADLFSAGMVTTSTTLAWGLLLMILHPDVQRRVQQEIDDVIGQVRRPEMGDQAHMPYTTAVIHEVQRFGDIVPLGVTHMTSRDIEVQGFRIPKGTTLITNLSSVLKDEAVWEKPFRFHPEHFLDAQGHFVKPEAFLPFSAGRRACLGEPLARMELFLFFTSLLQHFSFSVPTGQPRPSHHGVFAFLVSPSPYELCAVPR
Description: as §2

[8] = target: T3, CYP450 1A2 (Homo sapiens, UniProt P05177); test: CYP450 inhibition kit (drug-drug interaction), 1A2; type: biochemical
T3 construct: purchased BD Gentest (Franklin Lakes, NJ)
T3 sequence (P05177 1-516): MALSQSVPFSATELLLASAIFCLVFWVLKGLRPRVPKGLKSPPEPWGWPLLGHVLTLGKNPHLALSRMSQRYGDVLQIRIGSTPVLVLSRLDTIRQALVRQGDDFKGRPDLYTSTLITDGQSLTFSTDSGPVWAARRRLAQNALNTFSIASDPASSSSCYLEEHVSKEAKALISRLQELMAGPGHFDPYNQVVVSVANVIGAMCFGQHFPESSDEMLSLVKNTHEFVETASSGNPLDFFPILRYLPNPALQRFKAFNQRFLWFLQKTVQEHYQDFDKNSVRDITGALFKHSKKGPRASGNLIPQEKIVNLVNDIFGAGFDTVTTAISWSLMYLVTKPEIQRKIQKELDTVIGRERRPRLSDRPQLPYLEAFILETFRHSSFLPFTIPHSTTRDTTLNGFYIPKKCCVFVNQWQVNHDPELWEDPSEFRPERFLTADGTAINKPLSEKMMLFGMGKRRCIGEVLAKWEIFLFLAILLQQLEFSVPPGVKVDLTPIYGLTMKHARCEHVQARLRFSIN
Description: as §2

[9] = target: T4, CYP450 2C9 (Homo sapiens, UniProt P11712); test: CYP450 inhibition kit (drug-drug interaction), 2C9; type: biochemical
T4 construct: purchased BD Gentest (Franklin Lakes, NJ)
T4 sequence (P11712 whole entry): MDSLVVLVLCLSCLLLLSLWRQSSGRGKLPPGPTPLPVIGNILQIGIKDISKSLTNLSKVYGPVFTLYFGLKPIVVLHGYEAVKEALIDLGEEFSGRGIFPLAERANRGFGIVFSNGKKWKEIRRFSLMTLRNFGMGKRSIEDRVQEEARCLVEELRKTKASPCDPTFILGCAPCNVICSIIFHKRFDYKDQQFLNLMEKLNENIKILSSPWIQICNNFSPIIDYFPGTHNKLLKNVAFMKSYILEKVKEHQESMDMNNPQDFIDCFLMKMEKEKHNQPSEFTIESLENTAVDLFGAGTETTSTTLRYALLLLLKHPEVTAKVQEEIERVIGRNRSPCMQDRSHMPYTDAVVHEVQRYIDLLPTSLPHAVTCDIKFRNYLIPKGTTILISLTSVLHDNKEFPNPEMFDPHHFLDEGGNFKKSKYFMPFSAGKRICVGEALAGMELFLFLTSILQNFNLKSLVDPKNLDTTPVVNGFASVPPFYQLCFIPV
Description: as §2

[10] = system: P. falciparum strain TM91C235; test: labeled hypoxanthine susceptibility assay, P. falciparum TM91C235; type: cell-based, Plasmodium falciparum; settings: Plasmodium falciparum
Description: as §3

[11] = system: P. falciparum strain W2; test: labeled hypoxanthine susceptibility assay, P. falciparum W2; type: cell-based, Plasmodium falciparum; settings: Plasmodium falciparum
Description: as §3

[12] = target: T5, CYP450 2C19 (Homo sapiens, UniProt P33261); test: CYP450 inhibition kit (drug-drug interaction), 2C19; type: biochemical
T5 construct: purchased BD Gentest (Franklin Lakes, NJ)
T5 sequence (P33261 whole entry): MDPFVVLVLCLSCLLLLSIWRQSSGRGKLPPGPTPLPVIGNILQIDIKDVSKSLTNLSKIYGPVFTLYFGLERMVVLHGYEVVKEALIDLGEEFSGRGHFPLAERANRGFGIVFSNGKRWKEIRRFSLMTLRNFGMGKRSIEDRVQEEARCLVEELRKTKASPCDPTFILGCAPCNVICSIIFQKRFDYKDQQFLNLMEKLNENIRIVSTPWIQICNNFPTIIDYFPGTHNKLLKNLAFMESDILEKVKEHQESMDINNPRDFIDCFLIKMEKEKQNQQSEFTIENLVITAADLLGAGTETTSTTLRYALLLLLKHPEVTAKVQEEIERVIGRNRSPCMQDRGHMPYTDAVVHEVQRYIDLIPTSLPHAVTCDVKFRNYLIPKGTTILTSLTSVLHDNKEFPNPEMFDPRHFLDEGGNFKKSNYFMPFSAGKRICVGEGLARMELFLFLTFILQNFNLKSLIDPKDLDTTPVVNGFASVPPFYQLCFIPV
Description: as §2

[13] = D6, read-out: IC90 Pf D6, P. falciparum D6, mefloquine: historical mean +/- SD (n)
[14] = D6, read-out: PF D6 IC90, P. falciparum D6
[15] = Plasmodium falciparum, TM90C2A, read-out: IC90 Pf C2A
[16] = Plasmodium falciparum, TM90C2A, read-out: IC90 PfC2A
[17] = Plasmodium falciparum, TM90C2A, read-out: PF C2A IC90
[18] = Plasmodium falciparum, TM90C2A, read-out: Pf C2A IC90 nM values calculated using MW in Column C
[19] = Plasmodium falciparum, TM90C2A; read-out: IC90 PfC2A

C=CCNCC(O)c1cc(C(F)(F)F)nc2c(C(F)(F)F)cccc12 (centres unmarked) [WR308255]
IC50 [1]: 58.4 µM
IC50 [2]: 18 µM
half-life at 1 μM [3]: 25 min
IC90 [4, 13]: 0.015 µg/mL (≈ 0.0412 µM)
IC90 [4, 14]: 0.0145 µg/mL (≈ 0.0398 µM)
CC50 [5]: > 120 µM
IC90 [6, 15]: 0.037 µg/mL
IC90 [6, 16]: 101 nM
IC90 [6, 17]: 0.0368 µg/mL
IC90 [6, 18]: 101 nM
CSI (C2A/W2) ([6]; ratio of IC90 C2A to IC90 W2): 9.8
IC50 [7]: 2.9 µM
IC50 [8]: 1.5 µM
IC50 [9]: 25 µM
IC90 ([10]; read-out: IC90 Pf C235): 0.019 µg/mL (≈ 0.0522 µM)
IC90 ([10]; read-out: PF C235 IC90): 0.0187 µg/mL (≈ 0.0513 µM)
IC90 ([11]; W2, read-out: IC90 Pf W2): 0.0038 µg/mL (≈ 0.0104 µM)
IC90 ([11]; W2, read-out: PF W2 IC90): 0.00375 µg/mL (≈ 0.0103 µM)
IC50 [12]: 25 µM

OC(CNC1CCC1)c1cc(C(F)(F)F)nc2c(C(F)(F)F)cccc12 (centres unmarked) [WR308266]
IC50 [1]: 13.1 µM
IC50 [2]: 5.7 µM
half-life at 1 μM [3]: 22 min
IC90 [4, 13]: 0.025 µg/mL (≈ 0.0661 µM)
IC90 [4, 14]: 0.0245 µg/mL (≈ 0.0647 µM)
CC50 [5]: 59 µM
IC90 [6, 15]: 0.052 µg/mL
IC90 [6, 16]: 137 nM
IC90 [6, 17]: 0.0517 µg/mL
IC90 [6, 18]: 137 nM
CSI (C2A/W2) ([6]; ratio of IC90 C2A to IC90 W2): 8.5
IC50 [7]: 1.4 µM
IC50 [8]: 2.4 µM
IC50 [9]: 12 µM
IC90 ([10]; read-out: IC90 Pf C235): 0.024 µg/mL (≈ 0.0634 µM)
IC90 ([10]; read-out: PF C235 IC90): 0.0243 µg/mL (≈ 0.0643 µM)
IC90 ([11]; W2, read-out: IC90 Pf W2): 0.0061 µg/mL (≈ 0.0161 µM)
IC90 ([11]; W2, read-out: PF W2 IC90): 0.00609 µg/mL (≈ 0.0161 µM)
IC50 [12]: 7.6 µM

CCC(CC)CNCC(O)c1cc(C(F)(F)F)nc2c(C(F)(F)F)cccc12 (centres unmarked) [WR308388]
IC50 [1]: 15.7 µM
IC50 [2]: 33 µM
half-life at 1 μM [3]: 16 min
IC90 [4, 13]: 0.0067 µg/mL (≈ 0.0164 µM)
IC90 [4, 14]: 0.00671 µg/mL (≈ 0.0164 µM)
CC50 [5]: 56 µM
IC90 [6, 15]: 0.01 µg/mL
IC90 [6, 17]: 0.0102 µg/mL
IC90 [6, 19]: 23 nM
CSI (C2A/W2) ([6]; ratio of IC90 C2A to IC90 W2): 9.1
IC50 [7]: 0.8 µM
IC50 [8]: 1.2 µM
IC50 [9]: 13 µM
IC90 ([10]; read-out: IC90 Pf C235): 0.011 µg/mL (≈ 0.0269 µM)
IC90 ([10]; read-out: PF C235 IC90): 0.0109 µg/mL (≈ 0.0267 µM)
IC90 ([11]; W2, read-out: IC90 Pf W2): 0.0011 µg/mL (≈ 0.00269 µM)
IC90 ([11]; W2, read-out: PF W2 IC90): 0.00112 µg/mL (≈ 0.00274 µM)
IC50 [12]: 3.4 µM

CC(C)CC(C)NCC(O)c1cc(C(F)(F)F)nc2c(C(F)(F)F)cccc12 (centres unmarked) [WR308413]
IC50 [1]: 8.5 µM
IC50 [2]: > 40 µM
half-life at 1 μM [3]: 19 min
IC90 [4, 13]: 0.012 µg/mL (≈ 0.0294 µM)
IC90 [4, 14]: 0.0116 µg/mL (≈ 0.0284 µM)
CC50 [5]: > 120 µM
IC90 [6, 15]: 0.0075 µg/mL
IC90 [6, 17]: 0.00748 µg/mL
IC90 [6, 18]: 18 nM
IC90 [6, 19]: 171 nM
CSI (C2A/W2) ([6]; ratio of IC90 C2A to IC90 W2): 7.5
IC50 [7]: 1 µM
IC50 [8]: 26 µM
IC50 [9]: 19 µM
IC90 ([10]; read-out: IC90 Pf C235): 0.015 µg/mL (≈ 0.0367 µM)
IC90 ([10]; read-out: PF C235 IC90): 0.0147 µg/mL (≈ 0.036 µM)
IC90 ([11]; W2, read-out: IC90 Pf W2): 0.0011 µg/mL (≈ 0.00269 µM)
IC90 ([11]; W2, read-out: PF W2 IC90): 0.001 µg/mL (≈ 0.00245 µM)
IC50 [12]: 5.8 µM

CC1C(NCC(O)c2cc(C(F)(F)F)nc3c(C(F)(F)F)cccc23)CC2CC1C2(C)C (centres unmarked) [WR308446]
IC50 [1]: 8.85 µM
IC50 [2]: > 40 µM
half-life at 1 μM [3]: 13 min
IC90 [4, 13]: 0.014 µg/mL (≈ 0.0304 µM)
IC90 [4, 14]: 0.0143 µg/mL (≈ 0.0311 µM)
CC50 [5]: 48 µM
IC90 [6, 15]: 0.016 µg/mL
IC90 [6, 17]: 0.0155 µg/mL
IC90 [6, 19]: 34 nM
IC50 [7]: 9.1 µM
IC50 [8]: > 40 µM
IC50 [9]: 16 µM
IC90 ([10]; read-out: IC90 Pf C235): 0.019 µg/mL (≈ 0.0413 µM)
IC90 ([10]; read-out: PF C235 IC90): 0.0189 µg/mL (≈ 0.041 µM)
IC90 ([11]; W2, read-out: IC90 Pf W2): < 0.001 µg/mL
IC90 ([11]; W2, read-out: PF W2 IC90): < 0.00048 µg/mL
IC50 [12]: 14 µM

Reference: PMC2833169, “Anti-malarial activity of a non-piperidine library of next-generation quinoline methanols” (Malaria Journal, 2010)
